Reference: patent US20110003878A1, “NOVEL DERIVATIVES OF PHTHALIMIDE AS HISTONE DEACETYLASE INHIBITORS” (UNIVERSIDAD DE GRANADA, priority 2006, published 2011)

Tested on: HDAC (HeLa nuclear extract, rich in HDAC activity)
Test: HDAC AK-501 colorimetric inhibition kit (Color de Lys substrate, HeLa nuclear extract)
Assay type: biochemical, human
Details: Color de Lys substrate 0.2 mM final, 20 minutes at 37° C., reading at 405 nm, 5 concentrations (0.1-1.0 μM)
Description: The process of the assay was carried out in two steps. In the first step, the Color de Lys® substrate, containing an acetylated lysine group, was incubated with a sample of HeLa (human cervical cancer cell line) nuclear extract, rich in HDAC activity. […] There is a linear correlation between the absorption and the deacetylation of lysine within instrumental limits. The operating procedure was the following: • 1. […] The Hela extract was added, except to the enzyme-free control. • 3. The plate and the Color de Lys® substrate were thermostatted at 37° C. • 4. The reactions were started adding the 0.4 mM substrate (final concentration of the substrate 0.2 mM) in each well and it was stirred. • 5. A reaction time of 20 minutes at 37° C. was allowed. • 6. The Color de Lys® developer, prepared approximately 30 minutes before its use, was added (the developer was used diluted 20 times with an amount of TSA resulting in a final concentration of 1 μM in the assay). • It was allowed to react for 15 minutes at 37° C. • 7.

| Compound | IC50 |
| --- | --- |
| O=C(CCCCCN1C(=O)c2ccc([N+](=O)[O-])cc2C1=O)NO [MTC-127, 6-(5-nitro-1,3-dioxo-isoindol-2-yl)-N-hydroxyhexanamide] | 350 nM |
| Cc1ccc2c(c1)C(=O)N(CCCCCC(=O)NO)C2=O [MTC-141, 6-(5-methyl-1,3-dioxoisoindol-2-yl)-N-hydroxyhexanamide] | 180 nM |
